Measurements published in patent US20060019922A1, “Selective killing of cancerous cells” (The University of North Carolina, priority 2004, published 2006).

How the values were obtained:
[1] = tested on: HEK 293T cells; test: GCV sensitivity assay (luciferase or β-galactosidase activity as cell viability) in transfected HEK 293T cells; type: cell-based; details: Homo sapiens, 96 h, four days of GCV
From the text: FIG. 4 is a graphical representation of regulation of the response to GCV by constitutively expressed K2-5F. Cells (HEK 293T) were co-transfected with equal amounts of the following plasmids: pRL-2MDR-TKp-TK and pcDNA3.1A (Δ), pRL-2MDR-TKp-TK and pcK2-5F (◯), or pcDNA3.1A and PRL-TK (□). All cells were also co-transfected with a luciferase-expressing plasmid (FIG. 4A) or a β-galactosidase-expressing plasmid (FIG. 4B) as a marker. After twenty-four hours, cells in each well were re-plated evenly into six-well plates, and in another twenty four hours, GCV was administered in varying concentrations. Luciferase (FIG. 4A) or β-galactosidase (FIG. 4B) activities were measured after four days of treatment by GCV. Results are expressed as a percentage of the enzymatic activities at 0 GCV for each set of plasmids.
(§1) Cells were seeded in twelve-well plates and transfected as described above. […] After four days of treatment, cells were lysed, and luciferase activities or β-galactosidase activities were measured according to the manufacturer's protocol (Promega Corp., Madison, Wis., United States of America). Cell viability was estimated by luciferase activity or β-galactosidase activity, with results expressed as a percentage of the activity in the absence of GCV. […]

[2] = tested on: HEK 293 cells; test: GCV sensitivity assay (luciferase) in transfected HEK 293 cells; type: cell-based, human; details: HEK 293 cells with TK, K2-5F and p53 vectors vs TK vector only or TK plus K2-5F vector
From the text: FIG. 6 is a graphical representation of regulation of the response to GCV by p53-induced K2-5F. Cells (HEK 293) were co-transfected with the following plasmids: pRL-2MDR-TKp-TK and pFR-2p21-K2-5F (Δ); pRL-2MDR-TKp-TK, pFR-2p21-K2-5F, and pCMV-P53-Myc (∇); or pRL-2MDR-TKp-TK and pcK2-5F (◯). The total DNA amount was adjusted by pcDNA3.1A and/or PRL-TK. A ratio of 1:20:1 between pRL-2MDR-TKp-TK, pFR-2p21-K2-5F, and pCMV-P53-Myc was used. (□) represents cells transfected with both control vectors. After twenty-four hours, cells in each well were replated uniformly into six-well plates, and after another twenty four hours, GCV was administered in varying concentrations. Luciferase activities were measured after four days of treatment with GCV. Results are expressed as a percentage of the luciferase activities at 0 GCV.
as §1

[3] = tested on: Saos-2/p53- cells; test: Colony-formation assay with GCV in Saos-2/p53-negative cells; type: cell-based, human
From the text: (§2) FIGS. 9A and 9B depict regulation of the response to GCV by K2-5F induced by endogenous p53. Saos-2/p53-negative (FIG. 9A) and Saos-2/p53-positive (FIG. 9B) cells were co-transfected with plasmid pRL-2MDR-TKp-TK without (black bars) or with (gray bars) co-transfection of pFR-2p21-K2-5F. White bars represent cells transfected with empty vectors. All cells were also transfected with a β-galactosidase-expressing plasmid. After twenty-four hours, 600 cells were re-plated in 10-cm plates, and after another twenty-four hours, GCV was administered in varying concentrations. After ten days, surviving blue colonies larger than 50 cells were counted. Survival was expressed as a percentage of colonies formed at 0 GCV. […] The x-axis indicates the concentration of GCV in micromoles. The y-axis indicates the percentage of cell survival compared with cells not treated with GCV.
(§3) Cells were transfected with the plasmids indicated, along with a β-galactosidase-expressing plasmid to mark the transfected cells. […] After 10 days, surviving blue (β-galactosidase-positive) colonies larger than 50 cells were counted. Survival was expressed as a percentage of colonies formed at 0 GCV.
(§4) The pharmacological effect of K2-5F induced by endogenous p53 in stably transfected Saos-2 cells was investigated. […] The cells were then treated with GCV, and cell viability was evaluated with the use of a colony-formation assay. […]

[4] = tested on: Saos-2/p53+ cells; test: Colony-formation assay with GCV in Saos-2/p53-positive cells; type: cell-based, human; details: Saos 2/p53-positive cells co-transfected with pRL-2MDR-TKp-TK; especially at higher GCV concentrations
From the text: as §2, §3, §4

Nc1nc(O)c2ncn(COC(CO)CO)c2n1 [GCV, ganciclovir]
IC50 ([1]; HEK 293T cells transfected with both pRL-2MDR-TKp-TK and pcK2-5F): ~10 µM | IC50 ([1]; HEK 293T cells transfected with pRL-2MDR-TKp-TK alone): ~0.2 µM | right shift of the dose-response profile [2]: approximately 1 log | effect of K2-5F-expressing plasmid on the dose-survival curve for GCV ([3]; Saos2/p53-negative cells co-transfected with pRL-2MDR-TKp-TK, colonies after 10 days): no effect | concentration of GCV required to attain toxicity ([3]; Saos-2 cells compared with HEK 293 cells): higher concentration | effect of K2-5F-expressing plasmid on the dose-survival curve for GCV [4]: substantial protective effect
